Measured values as given in US8175860B2, “Method of inhibiting the growth of Helicobacter pylori” (priority 2009, dated 2012).
Values joined by “and” are separate entries in the source; they are usually repeats but may differ in a detail not shown here. Equal values may be shown once. Read-outs that look alike come from different tables or passages of the source.

Legend:
Assay type in all cases: biochemical
[1] = target: MtSK (M. tuberculosis shikimate kinase) (Mycobacterium tuberculosis, UniProt P9WPY3); test: Shikimate kinase inhibitor activity assay (pyruvate kinase/lactate dehydrogenase coupled), MtSK; conditions: for inhibition mode with respect to shikimate (SKM): ATP fixed at 2.5 mM, shikimate varied; for inhibition mode with respect to ATP: shikimate fixed at 1.6 mM, ATP varied; for inhibitory effect against shikimate kinase (in words): preliminary screening at 50 μM
[2] = target: HpSK (H. pylori shikimate kinase) (Helicobacter pylori, UniProt P56073); test: Shikimate kinase inhibitor activity assay (pyruvate kinase/lactate dehydrogenase coupled), HpSK; conditions: for inhibition mode with respect to shikimate (SKM): ATP fixed at 2.5 mM, shikimate varied; for inhibition mode with respect to ATP: shikimate fixed at 1.6 mM, ATP varied; for inhibitory effect against shikimate kinase (in words): preliminary screening at 50 μM
Procedure: The shikimate kinase activity was determined by coupling the release of ADP from the shikimate kinase-catalyzed reaction to the oxidation of NADH using pyruvate kinase (EC 2.7.1.40) and lactate dehydrogenase (EC 1.1.1.27) as coupling enzymes. Shikimate-dependent oxidation of NADH was monitored by the decrease in A340 (ε=6,200 M^−1 cm^−1). The assay was carried out at 25° C. in a mixture containing 100 mM Tris/HCl/KOH buffer, pH 7.5, 50 mM KCl, 5 mM MgCl2, 1.6 mM shikimic acid, 2.5 mM ATP, 1 mM phosphoenolpyruvate, 0.1 mM NADH, 2.5 units of pyruvate kinase/ml, and 2.7 units of lactate dehydrogenase/ml. All assays were conducted in a 96-well microplate spectrophotometer (FLUOstar OPTIMA, BMG LABTECH). Kinetic parameters were obtained using nonlinear regression fitting to the Michaelis-Menten equation. The apparent Km values for each substrate were determined as follows: for ATP the shikimate concentration ([shikimate]) was maintained at 1.6 mM and the [ATP] varied in the range from 0.001 mM to 2.5 mM; for shikimate the [ATP] was maintained at 2.5 mM and the [shikimate] varied in the range from 0.005 to 1.6 mM. The kinetic data were fit to the appropriate equations using the program GraphPad Prism 4 (Software Inc., USA). The kinetic data for determining the Km values were fit to
using the program GraphPad Prism 4 where v was the initial velocity, Vmax was the maximum velocity, Km was the Michaelis constant and [S] was the substrate (shikimate or ATP) concentration. The IC50 value for HpSK inhibition by inhibitors was determined by fitting data to
where v was the initial velocity, Vmax was the maximum velocity, Vmin was the minimum velocity, [I] was the concentration of compounds and n was the Hill slope.
Using GEMDOCK virtual docking and pharmarcophore model, several compounds were selected to assay inhibitor activity for verifying the inhibiting effect on HpSK and MtSK enzyme. Based on the procedure of enzyme activity assay, the initial velocities of the enzyme activity were determined in the presence of compounds (50 μM) dissolved in dimethylsulfoxide (DMSO). The final DMSO concentration in all assay mixtures was 5% (v/v). The assay buffer contained 100 mM Tris/HCl/KOH (pH 7.5), 1.6 mM shikimic acid, 2.5 mM ATP. The reaction was initiated by the addition of the diluted HpSK and MtSK enzyme (85 nM). After the preliminary screening, several compounds were identified to inhibit HpSK and MtSK enzyme activity. The initial velocities of the enzyme activity were determined in the presence of various concentrations of these compounds to investigate the dose-dependent inhibition effects. IC50 values of these compounds were obtained by fitting the data to a sigmoid dose-response equation of the GraphPad Prism 4. Afterwards, inhibitor modality was determined by measuring the effects of inhibitor concentrations on the enzymatic activity as a function of substrate concentration. In the inhibition experiment where the ATP concentration was fixed at 2.5 mM, shikimate was a varied substrate (0.06, 0.12, 0.24, 0.48, and 0.96 mM) when the concentration of inhibitor was varied from 0 to 50 μM. In parallel, in the inhibition experiment where the shikimate concentration was fixed at 1.6 mM, ATP was a varied substrate (0.06, 0.12, 0.24, 0.48, and 0.96 mM) when the concentration of inhibitor was varied from 0 to 50 μM.

[3] = target: T1, HpDHQS (dehydroquinate synthase of H. pylori) (Helicobacter pylori, UniProt P56081, I144T); test: HpDHQS inhibition assay (thiobarbiturate assay of residual DAHP); conditions: 1 μM HpDHQS, 37° C., pH 7.0
T1 construct: His tag (inferred from the pQE30 vector and nickel-ion purification); made in house; host or cells: E. coli JM109
T1 sequence (P56081 1-343 I144T): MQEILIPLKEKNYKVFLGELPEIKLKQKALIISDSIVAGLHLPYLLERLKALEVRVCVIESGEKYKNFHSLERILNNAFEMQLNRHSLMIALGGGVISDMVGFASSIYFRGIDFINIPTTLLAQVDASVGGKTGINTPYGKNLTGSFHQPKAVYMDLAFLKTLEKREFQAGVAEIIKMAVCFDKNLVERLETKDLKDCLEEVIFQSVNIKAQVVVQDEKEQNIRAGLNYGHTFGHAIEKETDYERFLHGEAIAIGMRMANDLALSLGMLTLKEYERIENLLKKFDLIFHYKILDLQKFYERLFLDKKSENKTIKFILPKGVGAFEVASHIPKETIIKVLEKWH
Procedure: The level of DAHP was determined by a thiobarbiturate assay method. All assays were conducted at 37° C. in a 200-μl solution containing 20 mM Bis-Tris propane buffer (pH 7.0), 0.5 mM DAHP, 0.02 mM cobalt chloride, 0.02 mM NAD^+ and 1 μM HpDHQS. The residual DAHP was oxidized by per-iodate to produce formylpyruvate, which then reacted with thiobarbiturate to yield a pink adduct, and this chromophore was monitored at A549 after extraction into cyclohexanone.
Compounds were prepared to 100 mM in dimethylsulfoxide (DMSO) solutions. A 5% DMSO control was included for each set of measurements. About 1 μM HpDHQS was added to the mixture containing the compound to be tested with the standard assay mixture. The test compounds were also evaluated whether they interfered the thiobarbiturate assay system in the absence of HpDHQS. The initial velocities were plotted against the inhibitor concentrations to obtain the IC50 by using the following equation A[I]=A[0]×{1−([I]/[I]+IC50)]} wherein A[I] was the enzyme activity with inhibitor concentration [I], and A[0] was the enzyme activity without the inhibitor.

[4] = MtSK, with respect to ATP, read-out: αKi, ATP
[5] = MtSK, with respect to shikimate, read-out: αKi, SKM
[6] = with respect to ATP, read-out: αKi, ATP
[7] = with respect to shikimate, read-out: αKi, SKM

Chain of MtSK (M. tuberculosis shikimate kinase) (P9WPY3 whole entry): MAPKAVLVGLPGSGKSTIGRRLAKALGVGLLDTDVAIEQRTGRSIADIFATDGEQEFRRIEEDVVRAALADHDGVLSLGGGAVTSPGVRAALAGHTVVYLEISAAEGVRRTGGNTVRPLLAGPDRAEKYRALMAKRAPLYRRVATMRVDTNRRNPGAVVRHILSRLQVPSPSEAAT
Chain of HpSK (H. pylori shikimate kinase) (P56073 whole entry): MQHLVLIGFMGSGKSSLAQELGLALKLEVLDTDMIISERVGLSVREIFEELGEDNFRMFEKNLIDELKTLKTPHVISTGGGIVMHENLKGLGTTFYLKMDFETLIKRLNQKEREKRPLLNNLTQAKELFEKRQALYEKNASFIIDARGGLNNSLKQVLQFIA

Molecule	IC50 ([1]; MtSK)	IC50 [2]	inhibition mode with respect to shikimate (SKM) ([1]; MtSK)	inhibition mode with respect to ATP ([1]; MtSK)	Ki [1, 4]	Ki [1, 5]	inhibition mode with respect to shikimate (SKM) [2]	inhibition mode with respect to ATP [2]	Ki [2, 6]	Ki [2, 7]	further results
O=C(O)c1cc(/N=N/c2ccc(/N=N/c3c(Cc4ccccc4)ccc4cc(S(=O)(=O)O)cc(O)c34)cc2)ccc1O [Compound 7, 5-((E)-(4-((E)-(2-benzyl-8-hydroxy-6-sulfonatonaphthalen-1-yl)diazenyl)phenyl)diazenyl)-2-hydroxybenzoate]	≤ 10000 nM	≤ 10000 nM	–	–	–	–	–	–	–	–	–
CC1CCc2c(sc(NC(=O)CSc3nc4ccccc4s3)c2C#N)C1 (centres unmarked) [HTS11955, 2-(1,3-benzothiazol-2-ylsulfanyl)-N-(3-cyano-6-methyl-4,5,6,7-tetrahydro-1-benzothiophen-2-yl)acetamide]	–	–	–	–	–	–	–	–	–	–	IC50 [3]: 61000 nM
5-((E)-(4-((E)-(4-((E)-(2,4-diamino-5-methylphenyl)diazenyl)-3-methyl-2-sulfonatophenyl)diazenyl)phenyl)diazenyl)-2-hydroxybenzoate [Compound 6]	1500 nM	4780 nM	Competitive	Competitive	320 nM	660 nM	Competitive	Competitive	1050 nM	1730 nM	–
O=C(NNC(=O)C1c2ccccc2Oc2ccccc21)c1cccc(F)c1 [Compound 3, N′-(3-fluorobenzoyl)-9H-xanthene-9-carbohydrazide]	> 50000 nM	40200 nM	–	–	–	–	–	–	–	–	–
N#C/C(=C/c1ccc(O)c(O)c1)C(=O)c1ccc(O)c(O)c1 [Compound 9, (Z)-2-(3,4-dihydroxybenzoyl)-3-(3,4-dihydroxyphenyl)acrylonitrile, reference compound]	–	2300 nM	Noncompetitive	Competitive	–	–	Noncompetitive	Competitive	3080 nM	5350 nM	inhibition mode with respect to shikimate (SKM) ([1]; MtSK, listed as AG538): noncompetitive; inhibitory effect against shikimate kinase (in words) ([1]; MtSK): showed inhibitory results; inhibition mode with respect to shikimate (SKM) ([2]; listed as AG538): noncompetitive; inhibitory effect against shikimate kinase (in words) [2]: showed inhibitory results
Cc1cc(/N=N/c2ccc(/N=N/c3ccc(/N=N/c4ccc(O)c(C(=O)O)c4)cc3)c(S(=O)(=O)O)c2C)c(N)cc1N [Compound 6, 5-((E)-(4-((E)-(4-((E)-(2,4-diamino-5-methylphenyl)diazenyl)-3-methyl-2-sulfonatophenyl)diazenyl)phenyl)diazenyl)-2-hydroxybenzoate]	≤ 10000 nM	≤ 10000 nM	–	–	–	–	–	–	–	–	–
CSc1c(C#N)c(N)nc(SCC(=O)c2cccc([N+](=O)[O-])c2)c1C#N [RH00573, 2-amino-4-methylsulfanyl-6-[2-(3-nitrophenyl)-2-oxoethyl]sulfanylpyridine-3,5-dicarbonitrile]	–	–	–	–	–	–	–	–	–	–	IC50 [3]: 84400 nM
Nc1ccc2c(O)c(/N=N/c3ccc4c(O)cc(S(=O)(=O)O)cc4c3)c(S(=O)(=O)O)cc2c1 [Compound 8, (E)-7-amino-4-hydroxy-3-((5-hydroxy-7-sulfonatonaphthalen-2-yl)diazenyl)naphthalene-2-sulfonate]	1550 nM	4910 nM	Competitive	Competitive	240 nM	610 nM	Competitive	Competitive	1850 nM	1820 nM	inhibition mode with respect to shikimate (SKM) ([1]; MtSK, listed as NSC136535): competitive; inhibition mode with respect to shikimate (SKM) ([2]; listed as NSC136535): competitive
5-((E)-(4-((E)-(2-benzyl-8-hydroxy-6-sulfonatonaphthalen-1-yl)diazenyl)phenyl)diazenyl)-2-hydroxybenzoate [Compound 7]	2770 nM	6100 nM	Competitive	Competitive	730 nM	1040 nM	Competitive	Competitive	1970 nM	2420 nM	–
O=C1c2cccc3cc([N+](=O)[O-])cc(c23)C(=O)N1c1ccc(S(=O)(=O)Nc2ccc(C(F)(F)F)cc2)cc1 [Compound 1, 4-(5-nitro-1,3-dioxo-1H-benzo[de]isoquinolin-2(3H)-yl)-N-(4-(trifluoromethyl)phenyl)benzenesulfonamide]	> 50000 nM	79300 nM	–	–	–	–	–	–	–	–	–
N=C(NO)c1ccc(Oc2cc(Cl)cc(Cl)c2)c([N+](=O)[O-])c1 [Compound 4, (Z)-4-(3,5-dichlorophenoxy)-N′-hydroxy-3-nitrobenzimidamide]	> 50000 nM	89800 nM	–	–	–	–	–	–	–	–	–
O=C1Nc2ccc(I)cc2/C1=C/c1cc(Br)c(O)c(Br)c1 [Compound 10, (Z)-3-(3,5-dibromo-4-hydroxybenzylidene)-5-iodoindolin-2-one, reference compound]	–	31400 nM	–	–	–	–	–	–	–	–	IC50 [1]: 29600 nM; inhibitory effect against shikimate kinase (in words) ([1]; MtSK): showed inhibitory results; inhibitory effect against shikimate kinase (in words) [2]: showed inhibitory results
O=C(Nc1ccc2c(O)cc(S(=O)(=O)O)cc2c1)Nc1ccc2c(O)cc(S(=O)(=O)O)cc2c1 [Compound 5, 7,7′-carbonylbis(azanediyl)bis(4-hydroxynaphthalene-2-sulfonate)]	2760 nM	≤ 10000 nM and 7770 nM	Noncompetitive	Competitive	350 nM	2670 nM	Noncompetitive	Competitive	1740 nM	12800 nM	inhibition mode with respect to shikimate (SKM) ([1]; MtSK, listed as NSC45174): noncompetitive; inhibition mode with respect to shikimate (SKM) ([2]; listed as NSC45174): noncompetitive
